Bliss excess data for seven compounds are collected here from the supplement of paper PMC11061612.

The structures appear in SMILES notation.

Holding throughout (assay): Bliss excess, mean over the matrix (fraction); higher = more synergy
The test system of assay [1] is A673 (Ewing's Sarcoma). An outline of the steps: (§1)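 Cell lines grown in DMEM/F12 or RPMI with 10% FBS were plated in 1536-well plates and held 24 hours at 37°C, 5% CO2 before 72 hours of exposure to two-drug dose matrices, with DMSO typically at 0.2%. CellTiter-Glo 2.0 luminescence gave viability, which was converted to inhibition. Vehicle wells were set to 0 and blank wells to 1. Combination Emax is the second-highest inhibition in the matrix, and Bliss excess is the observed combination effect minus the expected EA + EB − EA·EB, where EA and EB are the single-agent effects.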

Assay [2] relates to ALL-PO (B-Lymphoblastic Leukemia). An outline of the steps:
as §1

Assay [3] deals with BFTC-909 (Kidney Carcinoma). An outline of the steps:
as §1

Assay [4] relates to BPH-1 (Non-Cancerous). An outline of the steps: as §1
Assay [5] concerns ESS-1 (Other Solid Carcinomas). In short, it runs like this: as §1
For assay [6], the system named is HH (T-Cell Non-Hodgkin's Lymphoma). An outline of the steps: as §1
Assay [7] relates to HuCCT1 (Biliary Tract Carcinoma). An outline of the steps: as §1
For assay [8], the system named is KMRC-20 (Kidney Carcinoma). In short, it runs like this: as §1
In assay [9] the test system is KYAE-1 (Esophageal Adenocarcinoma). An outline of the steps:
as §1

The subject of assay [10] is LCLC-97TM1 (Non-Small Cell Lung Carcinoma). An outline of the steps: as §1
Assay [11] relates to LOXIMVI (Melanoma). An outline of the steps: as §1
Assay [12] relates to MPP-89 (Mesothelioma). In short, it runs like this: as §1
Assay [13] relates to NCI-H2052 (Mesothelioma). In short, it runs like this: as §1
Assay [14] deals with NUGC-4 (Gastric Carcinoma). In short, it runs like this: as §1
The subject of assay [15] is OV-56 (Ovarian Carcinoma). In short, it runs like this: as §1
In assay [16] the test system is OVCAR-5 (Ovarian Carcinoma). An outline of the steps: as §1
Assay [17] relates to SAS (Oral Cavity Carcinoma). An outline of the steps: as §1
The test system of assay [18] is SW1573 (Lung Adenocarcinoma). In short, it runs like this: as §1
Assay [19] relates to SW1710 (Bladder Carcinoma). In short, it runs like this: as §1
For assay [20], the system named is WSU-NHL (B-Cell Non-Hodgkin's Lymphoma). An outline of the steps: as §1

Turning to `CN(C)CCCOc1ccc(-c2ccc3ncc4c(c3c2)n(C2CCOCC2)c(=O)n4C)cn1` [AZD0156] + CCN(CCO)CCCOc1ccc2c(Nc3cc(CC(=O)Nc4cccc(F)c4)[nH]n3)ncnc2c1 [AZD2811] (first compound max 1 µM, 7x7, partner max 1 µM), the Bliss excess is 0.0262 in assay [1]; -0.024 in assay [2]; -0.0015 in assay [3]; 0.0625 in assay [4]; 0.0179 in [5]; -0.0412 in assay [6]. The Bliss excess in assay [7] is -0.0274; in [8], -0.0499; in assay [9], -0.0154; in [10], 0.0765; in assay [11], -0.0125; in [12] it was -0.0402. Further, the Bliss excess in [13] is -0.0123; in assay [14] it was -0.0387; in assay [15], -0.0176; in assay [16] it was -0.0281; in assay [17] it was -0.0391; in assay [18], -0.0205. The Bliss excess in assay [19] was -0.0288; in assay [20] it was -0.005.
As for `Cn1cnc2c(F)c(Nc3ccc(Br)cc3Cl)c(C(=O)NOCCO)cc21` [Selumetinib] + C[C@@H]1COCCN1C2=NC(=NC(=C2)C3(CC3)[S@](=N)(=O)C)C4=C5C=CNC5=NC=C4 [AZD6738] (first compound max 10 µM, 7x7, partner max 10 µM), the Bliss excess is -0.0537 in assay [1]; 0.0391 in assay [2]; -0.025 in [3]; 0.108 in assay [4]; 0.024 in assay [5]; -0.038 in assay [6]. In addition, the Bliss excess is -0.0164 in assay [7]; -0.0496 in [8]; -0.0243 in assay [9]; -0.0043 in assay [10]; 0.0322 in assay [11]; -0.0424 in assay [12]. Moreover, the Bliss excess in [13] was 0.0119; in [14] it was 0.0069; in assay [15], -0.0239; in assay [16], -0.0236; in assay [17], -0.012; in assay [18] it was -0.0587. Besides, the Bliss excess in assay [19] is -0.0481; in assay [20] it was -0.0042.
On to `CC1(C)CCC(CN2CCN(c3ccc(C(=O)NS(=O)(=O)c4ccc(NCC5CCOCC5)c([N+](=O)[O-])c4)c(Oc4cnc5[nH]ccc5c4)c3)CC2)=C(c2ccc(Cl)cc2)C1` [Venetoclax] + C=CCn1c(=O)c2cnc(Nc3ccc(N4CCN(C)CC4)cc3)nc2n1-c1cccc(C(C)(C)O)n1 [AZD1775] (first compound max 1 µM, partner max 1 µM), for which the Bliss excess in assay [1] was 0.112; in assay [2], 0.136; in assay [3], -0.0556; in assay [4], -0.0548; in assay [5] it was 0.0835; in assay [6] it was 0.029. In addition, the Bliss excess was -0.0281 in assay [7]; -0.044 in assay [8]; -0.033 in [9]; -0.0364 in [10]; 0.0417 in [11]; 0.1 in assay [12]. Besides, the Bliss excess in assay [13] was -0.0145; in assay [14] it was -0.0733; in assay [15], -0.0114; in assay [16] it was 0.0332; in assay [17], -0.0073; in assay [18], -0.0427. Moreover, the Bliss excess is -0.0519 in assay [19] and -0.0036 in [20].
In the case of `COc1cccc(OCCCN)c1-c1cc(Nc2cnc(C#N)cn2)n[nH]1` [Prexasertib] + O=C(c1cc(Cc2n[nH]c(=O)c3ccccc23)ccc1F)N1CCN(C(=O)C2CC2)CC1 [Olaparib] (first compound max 1 µM, 7x7, partner max 10 µM), the Bliss excess was -0.0452 in assay [1]; -0.0194 in assay [2]; -0.0109 in assay [3]; 0.0266 in assay [4]; 0.0054 in [5]; -0.121 in assay [6]. The Bliss excess was -0.0824 in assay [7]; -0.0735 in assay [8]; 0.0116 in [9]; -0.0381 in [10]; -0.0372 in [11]; -0.0227 in assay [12]. Also, the Bliss excess in assay [13] is -0.0332; in assay [14] it was -0.019; in [15], -0.0739; in [16], -0.17; in assay [17], -0.0104; in assay [18] it was 0.001. Further, the Bliss excess in [19] is -0.0857; in assay [20], -0.0532.
As to `NC1(C(=O)N[C@@H](CCO)c2ccc(Cl)cc2)CCN(c2ncnc3[nH]ccc23)CC1` [Capivasertib] + C[C@@H]1COCCN1C2=NC(=NC(=C2)C3(CC3)[S@](=N)(=O)C)C4=C5C=CNC5=NC=C4 [AZD6738] (first compound max 10 µM, 7x7, partner max 10 µM), the Bliss excess was 0.0077 in [1]; 0.0103 in assay [2]; -0.0878 in assay [3]; -0.0497 in assay [4]; -0.0884 in assay [5]; -0.0396 in assay [6]. Further, the Bliss excess in assay [7] was -0.0335; in [8], -0.128; in assay [9] it was 0.0014; in assay [10], -0.0607; in assay [11] it was -0.0014; in assay [12], -0.0166. The Bliss excess was -0.0657 in assay [13]; -0.0488 in assay [14]; -0.032 in [15]; -0.0357 in assay [16]; -0.0308 in [17]; -0.0915 in assay [18]. Further, the values for the Bliss excess in [19] and in assay [20] were -0.0403 and -0.05, respectively.
`CS(=O)(=O)CCNCc1ccc(-c2ccc3ncnc(Nc4ccc(OCc5cccc(F)c5)c(Cl)c4)c3c2)o1` [Lapatinib] + C[C@@H](Oc1cc(-c2cnn(C3CCNCC3)c2)cnc1N)c1c(Cl)ccc(F)c1Cl [Crizotinib] (first compound max 10 µM, 7x7, partner max 10 µM): the Bliss excess in [1] is -0.0546; in assay [2] it was 0.035; in assay [3], -0.0651; in assay [4], -0.0078; in [5], -0.0637; in [6] it was -0.0405. For the same compound, the Bliss excess in assay [7] was -0.068; in assay [8] it was -0.116; in assay [9] it was -0.0171; in assay [10] it was -0.0093; in assay [11], -0.0505; in [12] it was -0.0762. The Bliss excess in [13] was -0.0676; in [14], 0.0496; in [15], 0.0056; in assay [16] it was -0.0818; in assay [17] it was -0.0346; in assay [18] it was -0.0788. The Bliss excess is -0.078 in assay [19] and -0.0515 in assay [20].
Take `C=CCn1c(=O)c2cnc(Nc3ccc(N4CCN(C)CC4)cc3)nc2n1-c1cccc(C(C)(C)O)n1` [AZD1775] + O=C(c1cc(Cc2n[nH]c(=O)c3ccccc23)ccc1F)N1CCN(C(=O)C2CC2)CC1 [Olaparib] (first compound max 1 µM, partner max 10 µM): the Bliss excess is 0.0042 in [1]; 0.0063 in assay [2]; 0.0075 in assay [3]; -0.0199 in assay [4]; -0.0316 in assay [5]; -0.0449 in [6]. Moreover, the Bliss excess in [7] is -0.0149; in assay [8], -0.112; in assay [9], -0.0006; in assay [10] it was -0.0833; in assay [11] it was -0.0897; in [12] it was -0.0018. The Bliss excess in assay [13] was -0.0602; in assay [14], -0.0481; in [15] it was -0.0576; in assay [16], -0.041; in assay [17], -0.0939; in [18], -0.0268. The Bliss excess is -0.0299 in [19] and -0.025 in assay [20].
